Measured values from patent US12036246B2, “Compositions and methods for enhancing cancer chemotherapy” (priority 2017, dated 2024).

Key:
PD-1 = PD-1 in T cells of animal models; type: in vivo; settings: FIG. 70-72
[1] = Loss of adipose tissue and muscle mass in tumor bearing mice; type: in vivo; settings: FIG. 75
Text: Individuals with cancer frequently present with weight loss, due to loss of fatty tissue and muscle wasting (cachexis). This weight loss can result in serious health issues in addition to those resulting directly from tumor growth and progression. […] Mice having tumors, with or without treatment with chemotherapeutic agents also experience cachexis.

IL-6 = IL-6 expression in tumors; settings: FIG. 77
A549 sphere cells = experiment: Proliferation of A549 sphere cells; type: cell-based; settings: FIG. 43-44
implanted tumor = settings: 28 days after tumor implantation, FIG. 13
Text: 8A provides an example of a typical testing protocol for such a nutritional supplement (“Nutrawell”) and the chemotherapeutic drug Tarceva. As shown, 28 days after tumor implantation mice were sacrificed and the tumor characterized.

[2] = test system: A549 lung cancer sphere cells; experiment: Cell cycle phase distribution of A549 sphere cells; type: cell-based; settings: Alimta 1 μM, Tarceva 5 μM, fish oil 75 μM, selenium 300 ng/mL
lung cancer cells [3] = experiment: Metastasis from implantation site of lung cancer cells; type: in vivo, mice; settings: FIG. 63
PTHrP = PTHrP expression in tumors; type: in vivo; settings: FIG. 77, FIG. 89
A549 lung cancer cells = experiment: Cell cycle phase distribution of A549 tumor cells; type: cell-based; settings: selenium 300 ng/mL, fish oil 75 μM (DHA content), Alimta 1 μM, Tarceva 5 μM
HSP90 = experiment: Western blot of HSP90 in tumors, animal models of triple negative human breast cancer; type: in vivo; settings: FIG. 111
Protocol: Studies of the effect of a nutritional supplement containing fish oil and selenium, both alone and in combination with chemotherapeutic agents, were also studied using in vivo animal models of triple negative human breast cancer. Animals were treated with a nutritional supplement containing fish oil and selenium (for example, a formulation as described in Table 1), Taxol (“tax”), Adriamycin (“adyri”), Avastin, or a combination of the nutritional supplement and individual chemotherapeutic agents.

p-AXL = experiment: Western blot of p-AXL in tumors, animal models of triple negative human breast cancer; type: in vivo; settings: FIG. 112
[4] = test system: MDA-MB-231 breast cancer sphere cells; experiment: Cell cycle phase distribution, Cisplatin / selenium / fish oil (Table 4); type: cell-based; settings: selenium 500 ng/mL, fish oil 75 μM (DHA content), Cisplatin 5 μg/mL
[5] = test system: MDA-MB-231 breast cancer sphere cells; experiment: Proliferation of MDA-MB-231 sphere cells; type: cell-based; settings: FIG. 45-46
ATGL = ATGL expression in animal models of human cancer; type: in vivo; settings: FIG. 89
Text: (§1) As shown in FIG. 89 (lower left panel), expression of UCP-1 and ATGL is increases in tumor tissue (T) relative to non-tumor tissue (NT).

[6] = test system: proliferative index marker; experiment: Proliferative index marker in mammary gland tumors by immunocytochemistry; type: in vivo, murine; settings: FIG. 11
Text: The effects of a nutritional supplement that includes fish oil and selenium in combination with chemotherapeutic drugs were also identified in in vivo studies, where the Ki-61 proliferative index marker was identified in mammary gland tumors of murine models by immunocytochemistry.

Cytochrome C = experiment: Western blot of Cytochrome C in tumors; type: in vivo; settings: FIG. 38
Text: Results of similar studies directed to Bc1-2, p-Bc1-2, and Caspase 3 are shown in FIG. 36; results for similar studies directed to Caspase 8 are shown in FIG. 37. […] These effects are enhanced, in several instances synergistically, when a nutritional supplement containing fish oil and selenium is used in combination with a chemotherapeutic drug.

[7] = test system: vascularization of tumors; experiment: Tumor-associated blood vessels in murine models of breast cancer; type: in vivo, mice; settings: FIG. 24-31
Protocol: In an exemplary study mice were treated as shown in the scheme depicted in FIG. 23.

UCP-1 = UCP-1 expression in animal models of human cancer; type: in vivo; settings: FIG. 89
Text: as §1

breast cancer cells = experiment: Metastatic tumor load in mammary glands, animals implanted with breast cancer cells; type: in vivo; settings: FIG. 65
[8] = test system: triple-negative breast cancer cell line (MDA-MB-231); experiment: Proliferation of MDA-MB-231 breast cancer cells; type: cell-based; settings: 72 hours, FIG. 8-9
[9] = test system: Iressa-resistant HCC827GR cells; experiment: Cell cycle phase distribution of Iressa-resistant cells, co-treatment; type: cell-based, human; settings: Iressa 1 μM
HCC827Gr cells [10] = experiment: Viable resistant HCC827Gr cells in culture; type: cell-based, human; settings: FIG. 54
lung cancer cells [11] = experiment: Tumor weight in mice implanted with lung cancer cells, Iressa; type: in vivo
AXL = experiment: Western blot of AXL in drug resistant HCC827GR cells; type: cell-based, human; settings: Iressa 1 μM, FIG. 105, 108
[12] = test system: drug resistant HCC827Gr lung cancer cells; experiment: Proliferation of drug resistant HCC827Gr cells; type: cell-based, human
HCC827Gr cells [13] = experiment: Colony formation by resistant HCC827Gr cells; type: cell-based, human; settings: 0.5 μM Iressa, FIG. 59-60

Compound: C#Cc1cccc(Nc2ncnc3cc(OCCOC)c(OCCOC)cc23)c1 [Tarceva]
- PD-1 expression in T cells (PD-1): marginally reduced
- loss of white adipose tissue (WAT), brown adipose tissue (BAT), and muscle mass (gastroc) [1]: only slightly relieved
- IL-6 expression in tumors (IL-6): can actually increase expression of such gene products
- proliferation of A549 sphere cells (A549 sphere cells): similarly resistant to Tarceva
- tumor weight distribution, large (>5 g) tumors (implanted tumor): still showed a significant number of such large tumors
- G0/G1 (cell cycle phase distribution) [2]: 58.3%
- G2/M (cell cycle phase distribution) [2]: 8.9%
- S (cell cycle phase distribution) [2]: 32.7%
- SubG1 (cell cycle phase distribution) [2]: 42.8%
- metastasis of tumor cells from the implantation site (lung cancer cells [3]): reduced to some extent
- PTHrP expression (PTHrP): can actually increase expression of such gene products
- G0/G1 (cell cycle phase distribution) (A549 lung cancer cells): 70.9%
- G2/M (cell cycle phase distribution) (A549 lung cancer cells): 14.8%
- S (cell cycle phase distribution) (A549 lung cancer cells): 14.2%
- SubG1 (cell cycle phase distribution) (A549 lung cancer cells): 5.9%

Compound: Avastin: chemotherapeutic drug commonly used to treat breast cancer
- HSP90 expression in tumor samples (HSP90): reduced to some extent
- p-AXL content of the tumor (p-AXL): little to no apparent reduction in p-AXL expression

Compound: N.N.[Cl][Pt][Cl] [Cisplatin]
- G0/G1 (cell cycle phase distribution) [4]: 48.5%
- G2/M (cell cycle phase distribution) [4]: 6.1%
- S (cell cycle phase distribution) [4]: 45.4%
- SubG1 (cell cycle phase distribution) [4]: 11.7%
- proliferation of MDA-MB-231 breast cancer sphere cells [5]: relatively resistant

Compound: CC(=O)O[C@H]1C(=O)[C@@]2(C)[C@H]([C@H](OC(=O)c3ccccc3)[C@]3(O)C[C@H](OC(=O)[C@H](O)[C@@H](NC(=O)c4ccccc4)c4ccccc4)C(C)=C1C3(C)C)[C@]1(OC(C)=O)CO[C@@H]1C[C@@H]2O [Taxol, paclitaxel]
- expression of ATGL (ATGL): decreased somewhat
- number of Ki-61 positive cells (proliferative index) [6]: reduces the number of positive cells
- HSP90 expression in tumor samples (HSP90): minimal impact on HSP90 expression
- Cytochrome C (Cytochrome C): little to no increase
- blood vessels associated with the tumors [7]: reduce the number of blood vessels associated with the tumor and also reduce their diameter
- PTHrP expression (PTHrP): actually increased expression when used alone
- expression of UCP-1 (UCP-1): decreased somewhat
- p-AXL content of the tumor (p-AXL): reduces p-AXL expression
- metastatic tumor load in the mammary glands (breast cancer cells): modest reduction in tumor loading of mammary glands

Compound: Nc1nc2[nH]cc(CCc3ccc(C(=O)N[C@@H](CCC(=O)O)C(=O)O)cc3)c2c(=O)[nH]1 [Alimta]
- G0/G1 (cell cycle phase distribution) [2]: 62.4%
- G2/M (cell cycle phase distribution) [2]: 7.2%
- S (cell cycle phase distribution) [2]: 30.4%
- SubG1 (cell cycle phase distribution) [2]: 20.9%
- G0/G1 (cell cycle phase distribution) (A549 lung cancer cells): 58.4%
- G2/M (cell cycle phase distribution) (A549 lung cancer cells): 5.3%
- S (cell cycle phase distribution) (A549 lung cancer cells): 36.3%
- SubG1 (cell cycle phase distribution) (A549 lung cancer cells): 45%

Compound: CC(=O)O[C@@]12CO[C@@H]1C[C@H](O)[C@@]1(C)C(=O)[C@H](O)C3=C(C)[C@@H](OC(=O)[C@H](O)[C@@H](NC(=O)OC(C)(C)C)c4ccccc4)C[C@@](O)([C@@H](OC(=O)c4ccccc4)[C@H]21)C3(C)C [Docetaxel]
- MDA-MB-231 cell proliferation [8]: provided a reduction in proliferation
- proliferation of MDA-MB-231 breast cancer sphere cells [5]: moderate sensitivity to Docetaxel

Compound: COc1cccc2c1C(=O)c1c(O)c3c(c(O)c1C2=O)C[C@@](O)(C(=O)CO)C[C@@H]3O[C@H]1C[C@H](N)[C@H](O)[C@H](C)O1 [Adriamycin, doxorubicin]
- number of Ki-61 positive cells (proliferative index) [6]: reduces the number of positive cells
- Cytochrome C (Cytochrome C): little to no increase
- p-AXL content of the tumor (p-AXL): little to no apparent reduction in p-AXL expression
- metastatic tumor load in the mammary glands (breast cancer cells): more effective than Taxol in reducing metastatic tumor load

Compound: COc1cc2ncnc(Nc3ccc(F)c(Cl)c3)c2cc1OCCCN1CCOCC1 [Iressa]
- G0/G1 (cell cycle phase distribution) [9]: 76.1%
- G2/M (cell cycle phase distribution) [9]: 18.9%
- S (cell cycle phase distribution) [9]: 4.9%
- SubG1 (cell cycle phase distribution) [9]: 1.51%
- PD-1 expression in T cells (PD-1): marginally reduced
- number of viable resistant HCC827Gr cells (HCC827Gr cells [10]): does not significantly decrease the number of viable resistant HCC827Gr cells
- proliferation of A549 sphere cells (A549 sphere cells): relatively resistant to treatment with Iressa
- tumor weight (lung cancer cells [11]; FIG. 16): only a marginal reduction in tumor weight
- tumor weight distribution (lung cancer cells [11]; FIG. 16 top right panel): most of the mice having >6 gram tumors
- AXL expression (AXL): had no effect
- reduction in cell proliferation ([12]; HCC827Gr cells, FIG. 57-58): ≤ 20%
- activity at 1 µM ([12]; Homo sapiens, read-out: proliferation, % of control values): ~80%
- colony formation by HCC827Gr cells (HCC827Gr cells [13]): Significant colony formation
